Results reported in patent US20050267182A1, “Urea derivatives as FLT-3 modulators” (Ambit Biosciences Corporation, priority 2003, published 2005).

Tests used:
FLT3 = target: T1, FLT3 (Homo sapiens, UniProt P36888); test: Binding constant (Kd) measurement, phage-displayed kinase competition binding assay; details: for Binding Assay: FLT3(JMminus): FLT3(JMminus) construct
T1 construct: FLT3(DKIN); made in house
T1 sequence (P36888 610-943 limits assumed): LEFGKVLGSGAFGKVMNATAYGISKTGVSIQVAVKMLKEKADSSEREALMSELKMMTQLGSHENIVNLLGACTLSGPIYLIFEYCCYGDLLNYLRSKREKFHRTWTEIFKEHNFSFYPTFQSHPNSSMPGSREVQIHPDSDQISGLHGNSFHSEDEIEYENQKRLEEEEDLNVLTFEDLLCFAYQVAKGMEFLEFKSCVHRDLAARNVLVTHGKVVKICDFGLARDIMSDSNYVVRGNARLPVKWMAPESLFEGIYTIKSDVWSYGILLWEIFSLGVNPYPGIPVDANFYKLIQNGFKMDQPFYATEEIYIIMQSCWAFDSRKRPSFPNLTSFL
Source text: Binding Constant (Kd) Measurements for Small-Molecule-Kinase Interactions
The term “ND” represents non-determined values.

MV4,11 cells = test: FLT3 assay using MV4,11 cells (cellular proliferation, MTS); format: cell-based, human; details: cell assay code CS0001
How it was run: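 MV4,11 AML cells, […] switch to DMEM/10% FBS overnight, plated at 10,000 cells/well and exposed to serially diluted compounds in duplicate for 3 days at 37° C., 5% CO2. Proliferation read by MTS added for 2 h.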

CS0002 = test: Cell Assay: CS0002; format: cell-based; details: cell assay code CS0002

| Compound | Binding Assay: FLT3(DKIN) (FLT3; FLT3(DKIN) construct) | Cell Assay: CS0001:IC50 (MV4,11 cells) | also measured |
| --- | --- | --- | --- |
| CC(C)(C)c1cc(NC(=O)Nc2ccc(OCc3ccccc3)cc2)on1 [Compound G30] | + + + + | + + + + | Cell Assay: CS0002:IC50 (CS0002): + + |
| COc1cc(OC)nc(N(C)c2cccc(C(=O)Nc3ccc(NC(=O)Nc4ccon4)cc3)c2)n1 [Compound N53] | + + + + | + + + | Cell Assay: CS0002:IC50 (CS0002): + + |
| CC(C)(C)c1cc(NC(=O)Nc2ccc(NC(=O)c3nocc3C(C)(C)C)cc2)no1 [Compound N82] | – | + + + | Binding Assay: FLT3(JMminus) (FLT3): + + +; Cell Assay: CS0002:IC50 (CS0002): + + |
| CC(C)c1sc(Cl)nc1C(=O)Nc1ccc(NC(=O)Nc2cc(C(C)(C)C)on2)cc1 [Compound N75] | – | – | Binding Assay: FLT3(JMminus) (FLT3): + + + +; IC50 (MV4,11 cells; Homo sapiens, MV4-11): > 10 µM; Cell Assay: CS0002:IC50 (CS0002): + + |
| CC(C)(C)c1cnc(CSc2cnc(NC(=O)Nc3ccon3)s2)o1 | – | + + + | Binding Assay: FLT3(JMminus) (FLT3): + + +; Cell Assay: CS0002:IC50 (CS0002): + + |
| CC(C)c1cc(NC(=O)Nc2ccc(NC(=O)C3CCN(c4ncc(C(F)(F)F)cc4Cl)CC3)cc2)no1 [Compound N59] | + + + | + + + + | IC50 (CS0002): > 10 µM |
| Cn1nc(C(F)(F)F)c(C(=O)Nc2ccc(NC(=O)Nc3cc(C(C)(C)C)on3)cc2)c1Cl [Compound N68] | + + + + | + + + | Cell Assay: CS0002:IC50 (CS0002): + + + |
| CC(C)(C)c1cc(NC(=O)Nc2ccc(N3C(=O)c4ccccc4C3=O)cc2)no1 [Compound A57] | – | + + + + | Binding Assay: FLT3(JMminus) (FLT3): + + +; IC50 (CS0002): > 10 µM |
| CC(C)(C)c1cc(NC(=O)Nc2ccc3c(c2)OCO3)no1 [Compound A56] | – | + + + | Binding Assay: FLT3(JMminus) (FLT3): + + +; IC50 (CS0002): > 10 µM |
| CC(C)(C)c1cc(NC(=O)Nc2ccc(C(=O)/C=C/c3ccncc3)cc2)no1 | – | + + + | Binding Assay: FLT3(JMminus) (FLT3): + + + +; IC50 (CS0002): > 10 µM |
| CC(C)(C)c1cc(NC(=O)Nc2ccc(NC(=O)c3ccccc3Cl)cc2)no1 [Compound N23] | + + + + | + + + + | Cell Assay: CS0002:IC50 (CS0002): + + |
| COc1cc(OC)nc(Nc2cccc(C(=O)Nc3ccc(NC(=O)Nc4cc(C(C)(C)C)on4)cc3)c2)n1 [Compound N49] | + + + + | + + + + | Cell Assay: CS0002:IC50 (CS0002): + + + |
| CC(C)(C)c1cc(NC(=O)Nc2ccc([N+](=O)[O-])cc2)no1 [Compound A21] | – | + + + | Binding Assay: FLT3(JMminus) (FLT3): + + +; Cell Assay: CS0002:IC50 (CS0002): + + |
| COc1cc(OC)nc(Oc2ccccc2C(=O)Nc2ccc(NC(=O)Nc3cc(C(C)(C)C)on3)cc2)n1 [Compound N70] | – | + + | Binding Assay: FLT3(JMminus) (FLT3): + + + |
| CC(=O)c1ccc(NC(=O)Nc2cc(C(C)(C)C)on2)cc1 [Compound A20] | + + + | + + + | – |
| CC(=O)c1c[nH]c(C(=O)Nc2ccc(NC(=O)Nc3cc(C(C)(C)C)on3)cc2)c1 [Compound N43] | + + + + | + + + | – |

| Compound | Binding Assay: FLT3(DKIN) (FLT3; FLT3(DKIN) construct) | Cell Assay: CS0001:IC50 (MV4,11 cells) | also measured |
| --- | --- | --- | --- |
| COC(=O)c1ccc(C(=O)Nc2ccc(NC(=O)Nc3cc(C(C)(C)C)on3)cc2)nc1 [Compound N12] | + + + + | + + + | – |
| CC(C)(C)c1cc(NC(=O)Nc2ccc(NC(=O)Cc3sc(-c4ccc(Cl)cc4)nc3-c3ccccc3)cc2)no1 [Compound N66] | + + + + | + + + | – |
| COc1cc(OC)nc(Oc2cccnc2C(=O)Nc2ccc(NC(=O)Nc3cc(C(C)(C)C)on3)cc2)n1 [Compound N56] | + + + + | + + + | – |
| CC(C)(C)c1cc(NC(=O)Nc2ccc(OCc3ccc4nonc4c3)cc2)no1 [Compound G55] | + + + + | + + + | – |
| Cc1ncccc1C(=O)Nc1ccc(NC(=O)Nc2cc(C(C)(C)C)on2)cc1 [Compound N145] | + + + + | + + + | – |
| CC(C)(C)c1cc(NC(=O)Nc2ccc(NC(=O)C(N)Cc3ccccc3F)cc2)no1 (stereo not shown) [Compound N42] | + + + | + + | – |
| CC(C)(C)c1cc(NC(=O)Nc2ccc(NC(=O)c3cc([N+](=O)[O-])ccn3)cc2)no1 [Compound N7] | + + + + | – | IC50 (CS0002): > 10 µM |
| Cn1nc(C(C)(C)C)cc1NC(=O)Nc1ccc(OCc2ccccc2)cc1 [Compound H2] | + + + + | + + + + | – |
| CC(C)(C)c1cc(NC(=O)Nc2ccc(OCCN3CCSCC3)cc2)no1 [Compound G53] | + + + | + + | – |
| Cc1[nH]c(C(=O)Nc2ccc(NC(=O)Nc3cc(C(C)(C)C)on3)cc2)c(C)c1CCC(=O)O [Compound N39] | + + + + | + + | – |
| CC(C)(C)c1cc(NC(=O)Nc2ccc(OCc3ccccc3C(F)(F)F)cc2)no1 [Compound G4] | + + + | + + | – |
| CC(C)(C)c1cc(NC(=O)Nc2ccncc2)no1 [Compound A53] | + + | + + | – |
| Cc1nc(C(=O)Nc2ccc(NC(=O)Nc3cc(C(C)(C)C)on3)cc2)nn1-c1cc(Cl)cc(Cl)c1 [Compound N15] | + + + | + + | – |
| CC(C)(C)c1cc(NC(=O)Nc2ccc(OCc3ccc(OC(F)(F)F)cc3)cc2)no1 [Compound G5] | + + + + | + + + | – |
| CC(C)(C)c1cc(NC(=O)Nc2ccc(NC(=O)c3cc4cccnc4nc3C(F)(F)F)cc2)no1 [Compound N61] | + + + | + + + | – |
| CC(C)(C)c1cc(NC(=O)Nc2ccc(NC(=O)c3ccc(OC(F)(F)F)cc3)cc2)no1 [Compound N30] | + + | + + | – |

More lines, main results first:

| Binding Assay: FLT3(DKIN) (FLT3; FLT3(DKIN) construct) | Cell Assay: CS0001:IC50 (MV4,11 cells) | Compound | also measured |
| --- | --- | --- | --- |
| + + + + | + + | CC(C)(C)c1cc(NC(=O)Nc2ccc(NC(=O)c3nccnc3C(N)=O)cc2)no1 [Compound N138] | IC50 (CS0002): > 10 µM |
| – | + + + | CC(C)(C)c1cc(NC(=O)Nc2ccc(NC(=O)c3ccc(Oc4ccnc(C(=O)O)c4)cc3)cc2)no1 [Compound N166] | Binding Assay: FLT3(JMminus) (FLT3): + + + +; Cell Assay: CS0002:IC50 (CS0002): + + |
| – | + + + + | Cc1nc(-c2ccccc2)sc1C(=O)Nc1ccc(NC(=O)Nc2cc(C(C)(C)C)on2)cc1 [Compound N181] | Binding Assay: FLT3(JMminus) (FLT3): + + + +; Cell Assay: CS0002:IC50 (CS0002): + + |
| – | + + + + | CC(C)(C)c1cc(NC(=O)Nc2ccc(NC(=O)c3cccnc3C(=O)O)cc2)no1 [Compound N165] | Binding Assay: FLT3(JMminus) (FLT3): + + +; IC50 (CS0002): > 10 µM |
| – | + + + + | Cc1nc(-c2ccc(Cl)cc2)sc1C(=O)Nc1ccc(NC(=O)Nc2cc(C(C)(C)C)on2)cc1 [Compound N184] | Binding Assay: FLT3(JMminus) (FLT3): + + + +; Cell Assay: CS0002:IC50 (CS0002): + + |
| – | + + + + | CCOC(=O)c1cccc(C(=O)Nc2ccc(NC(=O)Nc3cc(C(C)(C)C)on3)cc2)n1 [Compound N164] | Binding Assay: FLT3(JMminus) (FLT3): + + + +; Cell Assay: CS0002:IC50 (CS0002): + + |
| + + + + | + + + | Cc1ccc(-c2cc(C(=O)Nc3ccc(NC(=O)Nc4cc(C(C)(C)C)on4)cc3)c(C)o2)cc1 [Compound N120] | – |
| + + + + | + + + | CNC(=O)c1ccc(NC(=O)Nc2cc(C(C)(C)C)on2)cc1 [Compound N85] | – |
| – | + + | CC(C)(C)c1cc(NC(=O)Nc2ccc(NC(=O)c3sccc3CCc3cccc(C(F)(F)F)c3)cc2)no1 [Compound N183] | Binding Assay: FLT3(JMminus) (FLT3): + + + + |
| + + + | + + | CC(C)(C)c1cc(NC(=O)Nc2ccc(NC(=O)c3c4ccccc4nc4ccccc34)cc2)no1 [Compound N148] | – |
| + + + + | + + + | CC(C)(C)c1cc(NC(=O)Nc2ccc(C(=O)Nc3ccc(Cl)cc3)cc2)no1 [Compound N156] | – |
| – | + + | Cc1sc(NC(=O)Nc2ccc(Cl)cc2)c(C(N)=O)c1C [Compound Z58] | Kd (FLT3; FLT3(DKIN) construct): > 10 µM |
| + + | + + + | CC(C)(C)c1noc(-c2ccc(NC(=S)Nc3cc(C(C)(C)C)on3)cc2)n1 [Compound P6] | – |
| + + + + | + + + | CCOC(=O)CCc1c(C)[nH]c(C(=O)Nc2ccc(NC(=O)Nc3cc(C(C)(C)C)on3)cc2)c1C [Compound N83] | – |
| + + + + | + + + | COc1ccc(NC(=O)Nc2cc(C(F)(F)F)cc(Cl)n2)cc1 [Compound Z71] | – |
| + + + | + + | CC(C)(C)c1cc(NC(=O)Nc2ccc(NC(=O)c3cnc4ccccc4n3)cc2)no1 [Compound N149] | – |
